Test results as given in the supplement of paper PMC10307832.

Columns and labels:
GSK-J4 + Dasatinib = compound: CCOC(=O)CCNc1cc(N2CCc3ccccc3CC2)nc(-c2ccccn2)n1 [GSK-J4] + Cc1nc(Nc2ncc(C(=O)Nc3c(C)cccc3Cl)s2)cc(N2CCN(CCO)CC2)n1 [Dasatinib] (partner 0.075 µM); assay: relative viability (nuclei count vs DMSO), 5 days (fraction); higher = more cells survive
How it was run: (§1)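 Medians of duplicate plates are given as relative viability. That measure is the nuclei count in treated wells divided by the count in vehicle wells. Counts were taken on 4× images of lung cancer cell lines in 1536-well plates, 5 days after pin-tool dosing the day after seeding with one drug alone or a fixed anchor-drug dose plus five library-drug doses (not always all listed) in √10 steps.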

GSK-J4 + Luminespib = compound: CCOC(=O)CCNc1cc(N2CCc3ccccc3CC2)nc(-c2ccccn2)n1 [GSK-J4] + CCNC(=O)c1noc(-c2cc(C(C)C)c(O)cc2O)c1-c1ccc(CN2CCOCC2)cc1 [Luminespib] (partner 0.01 µM); assay: as above
How it was run: as §1

Cell Line	relative viability (GSK-J4 + Dasatinib; first compound 0.5 µM)	relative viability (GSK-J4 + Dasatinib; first compound 1.581 µM)	relative viability (GSK-J4 + Dasatinib; first compound 5 µM)	relative viability (GSK-J4 + Dasatinib; first compound 15.81 µM)	relative viability (GSK-J4 + Dasatinib; first compound 50 µM)	relative viability (GSK-J4 + Luminespib; first compound 0.5 µM)	relative viability (GSK-J4 + Luminespib; first compound 1.581 µM)	relative viability (GSK-J4 + Luminespib; first compound 5 µM)	relative viability (GSK-J4 + Luminespib; first compound 15.81 µM)	relative viability (GSK-J4 + Luminespib; first compound 50 µM)
NCI-H522	0.83	0.803	0.624	0.671	0.664	1.22	0.944	1.2	0.612	0.587
HCC-366	0.597	0.537	–	0.415	0.501	–	–	–	–	–
A-427	0.609	–	0.363	0.655	0.274	0.866	–	0.64	0.681	0.311
NCI-H2347	0.316	0.286	0.572	–	0.261	0.529	0.405	0.341	–	0.435
NCI-H1792	0.805	–	0.817	0.529	0.809	0.46	–	0.533	0.358	0.454
SK-LU-1	0.176	0.161	0.127	0.199	0.179	0.214	0.195	0.166	0.201	0.212
RERF-LC-KJ	0.68	0.774	0.695	0.708	0.371	1.23	1.17	1.31	1.12	0.584
NCI-H1993	0.613	0.649	0.716	0.52	0.43	0.885	0.803	0.779	0.525	0.494
NCI-H1734	0.405	0.454	0.378	0.396	0.468	0.209	0.167	0.181	0.186	0.155
HCC-44	–	–	–	–	–	1.02	0.897	–	0.939	0.747
NCI-H1944	0.225	0.223	0.179	0.196	0.184	0.762	0.711	0.851	0.649	0.799
HCC-78	0.562	0.374	0.651	0.3	0.319	–	–	–	–	–
NCI-H838	0.325	0.24	0.23	0.266	0.275	0.299	0.335	–	0.247	0.168
SW 1573	0.326	0.42	0.348	0.362	0.246	0.199	0.0964	0.268	0.213	0.148
NCI-H1623	0.562	0.576	0.629	0.38	0.51	0.556	0.427	0.677	0.432	0.283
ChaGo-K-1	0.618	0.501	0.461	0.592	0.518	0.56	0.627	0.594	0.607	0.45
LCLC-97TM1	0.596	0.724	0.951	0.825	0.555	0.725	0.722	0.773	0.415	0.256
COR-L 105	0.338	0.38	0.276	0.315	0.326	0.624	0.58	0.702	0.633	1.01
NCI-H1666	0.774	0.879	0.526	0.802	0.536	1.02	0.925	1.11	1.03	0.735
CAL-12T	0.431	0.477	0.465	0.405	0.335	0.83	0.549	0.244	0.205	0.518
EPLC-272H	0.418	0.327	0.262	0.357	0.282	0.263	0.408	0.346	0.203	0.173
ABC-1	0.47	0.546	0.465	0.598	0.297	0.373	0.496	0.594	0.52	0.396
NCI-H358	0.201	0.132	0.139	0.152	0.158	0.292	0.304	0.354	0.397	0.337
NCI-H1437	0.426	0.438	0.353	0.307	0.126	1.05	1.1	1.1	1.03	0.739

Cell Line	relative viability (GSK-J4 + Dasatinib; first compound 0.5 µM)	relative viability (GSK-J4 + Dasatinib; first compound 1.581 µM)	relative viability (GSK-J4 + Dasatinib; first compound 5 µM)	relative viability (GSK-J4 + Dasatinib; first compound 15.81 µM)	relative viability (GSK-J4 + Dasatinib; first compound 50 µM)	relative viability (GSK-J4 + Luminespib; first compound 0.5 µM)	relative viability (GSK-J4 + Luminespib; first compound 1.581 µM)	relative viability (GSK-J4 + Luminespib; first compound 5 µM)	relative viability (GSK-J4 + Luminespib; first compound 15.81 µM)	relative viability (GSK-J4 + Luminespib; first compound 50 µM)
EKVX	0.535	–	0.569	–	0.43	0.824	0.725	0.977	0.755	0.811
NCI-H3122	0.826	0.722	0.788	0.864	0.789	0.0789	0.067	0.119	0.0946	0.121
NCI-H2023	0.49	–	0.529	0.48	0.428	0.73	0.685	0.862	0.76	0.472
NCI-H460	0.524	0.445	0.471	0.37	0.363	0.0274	0.0313	0.03	0.0363	0.0333
PC-3 [JPC-3]	0.978	0.891	0.742	0.924	0.859	0.698	0.552	0.735	0.584	0.439
HCC-15	0.624	–	0.526	0.476	0.393	0.232	–	0.304	0.174	0.268
NCI-H2228	0.534	0.436	0.683	0.398	0.525	0.189	0.124	0.152	0.143	0.124
NCI-H1650	0.34	0.261	0.372	0.283	0.314	0.17	0.222	0.228	0.153	0.231
NCI-H2342	0.314	0.299	0.33	0.365	0.313	0.736	0.783	0.865	0.951	0.858
NCI-H1975	0.335	0.361	0.253	0.267	0.284	0.261	0.202	–	0.178	0.284
NCI-H727	0.338	0.305	0.522	0.298	0.223	0.299	0.402	0.244	0.336	0.369
COR-L23	0.477	0.393	–	0.409	0.413	0.581	0.647	–	0.68	0.514
LK-2	0.354	–	0.267	0.229	0.241	0.191	–	0.151	0.193	0.159
201T	0.576	0.6	0.639	0.391	0.348	1.05	1.1	1.12	1.02	0.992
HCC-827	0.335	0.356	0.435	0.312	0.289	0.566	0.629	0.832	0.405	0.526
NCI-H650	0.512	0.507	0.277	0.406	0.324	0.688	0.682	0.597	0.749	0.519
HARA	0.267	–	–	0.24	0.258	0.585	–	–	0.675	0.49
NCI-H661	0.862	0.755	0.636	0.641	0.649	0.911	0.902	0.929	0.904	0.6
NCI-H2087	0.747	–	0.725	0.694	0.645	0.172	–	0.166	0.162	0.174
NCI-H2405	0.231	0.327	–	0.212	0.186	0.774	0.674	–	0.511	0.653
NCI-H2170	0.542	0.744	0.643	0.475	0.536	0.576	0.668	0.81	0.362	0.609
NCI-H1793	0.433	0.365	0.239	0.358	0.414	0.261	0.192	0.18	0.258	0.134
NCI-H647	0.2	0.164	0.0733	0.285	0.131	0.29	0.125	0.235	0.166	0.125
NCI-H596	0.562	0.611	0.645	0.497	0.599	0.981	0.969	1.23	0.941	0.807

Cell Line	relative viability (GSK-J4 + Dasatinib; first compound 0.5 µM)	relative viability (GSK-J4 + Dasatinib; first compound 1.581 µM)	relative viability (GSK-J4 + Dasatinib; first compound 5 µM)	relative viability (GSK-J4 + Dasatinib; first compound 15.81 µM)	relative viability (GSK-J4 + Dasatinib; first compound 50 µM)	relative viability (GSK-J4 + Luminespib; first compound 0.5 µM)	relative viability (GSK-J4 + Luminespib; first compound 1.581 µM)	relative viability (GSK-J4 + Luminespib; first compound 5 µM)	relative viability (GSK-J4 + Luminespib; first compound 15.81 µM)	relative viability (GSK-J4 + Luminespib; first compound 50 µM)
EMC-BAC-2	0.317	0.333	0.191	0.339	0.258	1.21	1.09	0.985	1.09	0.676
SK-MES-1	0.392	0.348	0.334	0.24	0.358	0.695	0.731	0.718	0.686	0.37
H3255	0.361	0.364	0.416	0.369	0.386	0.752	0.726	0.693	0.827	0.683
NCI-H1651	0.537	0.306	0.367	0.443	0.477	0.703	0.728	0.727	0.701	0.625
NCI-H1395	0.402	0.428	0.382	0.355	0.375	0.529	0.621	0.62	0.723	0.536
NCI-H23	0.872	0.73	0.723	0.723	0.617	0.212	0.197	0.215	0.209	0.201
NCI-H1355	0.749	0.654	0.342	0.538	0.675	0.691	0.701	0.77	0.513	0.651
NCI-H2085	0.288	0.273	0.388	0.223	0.377	0.477	0.394	0.419	0.41	0.309
SW 900	0.603	0.496	0.426	0.568	0.327	0.195	0.156	0.155	0.177	0.154
NCI-H322M	0.269	0.19	0.237	0.23	0.278	0.857	0.756	0.953	0.646	0.542
NCI-H1915	0.342	0.36	–	0.316	0.352	0.824	0.791	–	0.657	0.613
HOP-62	0.625	0.639	0.269	0.567	0.525	0.877	0.937	0.917	0.794	0.396
LXF-289	0.21	0.181	0.0979	0.121	0.177	0.648	0.639	0.785	0.627	0.507
LCLC-103H	0.406	0.428	0.256	0.281	0.45	0.96	0.917	1.01	0.882	0.486
NCI-H441	0.537	0.537	0.735	0.516	0.358	0.303	0.298	0.476	0.394	0.308
BEN	0.398	0.362	–	0.304	0.284	0.297	0.373	–	0.289	0.189
NCI-H2009	0.298	0.276	0.166	0.265	0.189	1.05	0.918	–	0.938	0.407
NCI-H1755	0.367	0.406	0.246	0.364	0.361	0.355	0.387	0.504	0.326	0.383
NCI-H520	0.217	0.191	0.154	0.125	0.184	0.215	0.242	0.207	0.194	0.197
LOU-NH91	0.65	0.612	0.432	0.506	0.631	0.347	0.329	0.254	0.267	0.246
LU99A	0.441	0.582	–	0.457	0.374	0.201	0.267	–	0.244	0.223
PC-14	0.252	0.271	0.204	0.285	0.255	0.216	0.159	0.151	0.126	0.125
